The subject of data set [1] is CFI mice. Briefly: analgesic efficacy, writhing test, 60 minutes after oral application (Examples 5 to 8, Tables V to VIII). It counts as in vivo, mouse (CFI). The note with it: for ED50: Mus musculus, 1 h, 60 mins. The protocol: The analgesic efficacy of sodium salicylate, sodium salicylate + choline orotate in the molar ratio of 1:1 and sodium salicylate + choline orotate in the molar ratio of 1:2 was compared in the writhing test on mice and the ED50 determined after 1 hour.
As in Example 5, the ED50 of metamizol and metamizol + choline orotate in the molar ratio of 1:2 was determined after one hour by the writhing test.
The analgesic effects of codeine phosphate and codeine phosphate + choline orotate (molar ratio 1:1) are compared in the writhing test on mice.
(In general: In writhing tests, fewer writhes than in controls are read as antinociception.)

Data set [2] deals with NMRI mice. Briefly: analgesic efficacy, writhing syndrome, oral (Example 1, Table I). It counts as in vivo, mouse (NMRI, female). As for the experimental part: Dextropropoxyphene-HCl, dextropropolyphenorotate and dextropropoxyphene orotate + orotic acid (in the molar ratio 1:1) were tested on mice to determine their analgesic efficacy after oral administration following the "writhing" syndrome. The ED50 was determined after 15 minutes, 30 minutes, 60 minutes and 180 minutes.
ED50 in […] of mouse (calculated with respect to the
dextropropoxyphene-HCl);
oral application, writhing syndrome, 800 NMRI mice, […]

Data set [3] has as its system guinea pigs. Briefly: antitussive efficacy, Turner cough test, citric acid aerosol, oral (Example 2, Table II). It counts as in vivo, guinea pig. The note with it: for % cough inhibition: 30 minutes after oral application; for ED50: calculated according to the Gaussian Integral from the values of Table II, 30 minutes; for ED50 / antitussive efficacy (in words): oral; for antitussive efficacy (in words): in the dosages tested, guinea pigs. As for the experimental part: The antitussive efficacy of laevopropoxyphene-HCl and laevopropoxyphene orotate was compared on guinea pigs, using the Turner cough test.
% cough inhibition 30 minutes after oral application.
70 guinea pigs, 250 g; 7.5% citric acid aerosol for 10
minutes in the respired air.
According to the Gaussian Integral, from the values shown in the Table, the ED50 can be calculated for: L-propoxyphene-HCl as being greater than 200 mg/kg of animal, 1-propoxyphene orotate 79 ± 8 mg/kg of animal.

Data set [4] has as its system guinea pigs. The experiment in a line: antitussive action, Turner cough test, citric acid aerosol, intravenous (Example 3, Table III). It counts as in vivo, guinea pig. As for the experimental part: As with Example 2, the two substances laevopropoxyphene-HCl and laevopropoxyphene orotate were tested and compared with respect to their antitussive action. This time, however, intravenous applications were adopted.
% cough inhibition; the figures in brackets represent mg
propoxyphene-HCl in the 1-propoxyphene orotate.
320 guinea pigs (350 g); intravenous application. 7.5%

In data set [5] the test system is guinea pigs. Briefly: antitussive efficacy, Turner cough test, citric acid aerosol, oral (Example 4, Table IV). It counts as in vivo. The note with it: guinea pig, calculated with respect to 1-propoxyphene-HCl. The protocol: The antitussive efficacy of laevopropoxyphene-HCl, laevopropoxyphene orotate, laevopropoxyphene orotate + choline orotate (in the molar ratio 1:1) and of laevopropoxyphene-HCl + choline orotate (in the molar ratio of 1:2) was tested and compared after oral application on guinea pigs using the Turner cough test.
ED50 in mg/kg of guinea pig. Values calculated with respect
280 guinea pigs (350 g); oral application.
7.5% citric acid aerosol.

Data set [6] relates to blood proteins. Briefly: drug not bonded to serum protein, ultrafiltration of human serum with and without orotic acid. The note with it: in the presence of orotic acid. It counts as in vitro ADME. The protocol:
1 ml of this serum is then ultrafiltered at the same temperature, accompanied by agitation. (Filter permeability up to a molecular weight of approx. 10,000). The radioactivity contained in this ml is measured. The measured value, found […], indicates the percentage of drug which is not bonded to protein. The same test is repeated but in the presence of non-radioactively marked orotic acid in a molar ratio to the marked drug of for example 1:1 or 1:2. The percentage of free drug is calculated similarly as described above. If the second measured value is higher than the first, then this is a measure of improved availability of the drug. This increased availability is confirmed in experiments with animals.

The structures appear in SMILES notation. Entries after “also recorded” stand apart in the source; their conditions may differ. Where a name gives a salt, the structure may show the parent alone.

The ED50 is the dose that gives a 50% effect, or the effect in half of the subjects. Turning to `COc1ccc2c3c1O[C@H]1[C@@H](O)C=C[C@H]4[C@@H](C2)N(C)CC[C@@]341` [Codeine phosphate], it took a dose of 82 mg/kg to reach the 50% effect level in data set [1] (oral, writhing syndrome, CFI mice, female, 20 to 22 g, Table VII) (ED50).

As for `CCC(=O)O[C@](Cc1ccccc1)(c1ccccc1)[C@H](C)CN(C)C` [Dextropropoxyphene orotate], the “analgesic efficacy (in words)” value in data set [2] was “substantially more intensely effective as an analgesic than dextropropoxyphene-HCl by itself”.

Take `CCC(=O)O[C@@](Cc1ccccc1)(c1ccccc1)[C@@H](C)CN(C)C` [Laevopropoxyphene orotate]: the “% cough inhibition” value is on record as 6% in data set [3] (25 mg/kg); 31% in data set [3] (50 mg/kg); 47% in data set [3] (75 mg/kg); 56% in data set [3] (100 mg/kg); 17.5% in data set [4] (1 (0.758) mg/kg, 5 min., bracket = mg propoxyphene-HCl); 24% in data set [4] (1 (0.758) mg/kg, 10 min.). Besides, the “% cough inhibition” value in data set [4] (1 (0.758) mg/kg, 15 min.) was determined as 30%; in data set [4] (1 (0.758) mg/kg, 20 min.), 23%; in data set [4] (3 (2.27) mg/kg, 5 min.), 31.0%; in data set [4] (3 (2.27) mg/kg, 10 min.), 30%; in data set [4] (3 (2.27) mg/kg, 15 min.), 36%; in data set [4] (3 (2.27) mg/kg, 20 min.), 47%. Further, the “% cough inhibition” value in data set [4] (5 (3.79) mg/kg, 5 min.) is listed as 40.5%; in data set [4] (5 (3.79) mg/kg, 10 min.), 48%; in data set [4] (5 (3.79) mg/kg, 15 min.), 53%; in data set [4] (5 (3.79) mg/kg, 20 min.) it was 59%; in data set [4] (7.5 (5.69) mg/kg, 5 min.), 52.0%; in data set [4] (7.5 (5.69) mg/kg, 10 min.) it was 59%. For the same compound, the “% cough inhibition” value in data set [4] (7.5 (5.69) mg/kg, 15 min.) worked out at 63%; in data set [4] (7.5 (5.69) mg/kg, 20 min.), 62%. Besides, the ED50 in data set [3] (listed as 1-propoxyphene orotate) is 79 ± 8 mg/kg of animal; in data set [5] (1 hr., listed as Laevopropoxyphene crotate, 60 min), 103 mg/kg; in data set [5] (3 hr., listed as Laevopropoxyphene crotate, 180 min) it was 68 mg/kg. Also, the “antitussive efficacy (in words)” value in data set [3] is recorded as “outstanding antitussive efficacy”; in data set [4] (guinea pigs), “superior efficacy”.

For `CCC(=O)O[C@@](Cc1ccccc1)(c1ccccc1)[C@@H](C)CN(C)C` [Laevopropoxyphene-HCl], the “% cough inhibition” value is 0% in data set [3] (25 mg/kg); 8% in data set [3] (50 mg/kg); 0% in data set [3] (75 mg/kg); 11% in data set [3] (100 mg/kg); 0% in data set [3] (150 mg/kg); 9% in data set [3] (200 mg/kg). The “% cough inhibition” value in data set [4] (2 mg/kg, 5 min.) came to 11%; in data set [4] (2 mg/kg, 10 min.), 0%; in data set [4] (2 mg/kg, 15 min.), 0%; in data set [4] (5 mg/kg, 5 min.), 24%; in data set [4] (5 mg/kg, 10 min.), 0%; in data set [4] (5 mg/kg, 15 min.), 0%. For the same compound, the ED50 entry was “greater than 200 mg/kg of animal” in data set [3] (listed as L-propoxyphene-HCl); 250 mg/kg in data set [5] (1 hr., listed as Laevorpopoxyphene-HCl, 60 min); 195 mg/kg in data set [5] (3 hr., listed as Laevorpopoxyphene-HCl, 180 min). The “antitussive efficacy (in words)” value in data set [3] is on record as “no antitussive efficacy”. Moreover, the “toxicity remark in the cough inhibition table” value in data set [4] (7.5 mg/kg) is listed as “subtoxic”.

For `Cc1c(N(C)CS(=O)(=O)O)c(=O)n(-c2ccccc2)n1C` [Metamizol], it took a dose of 380 mg/kg to reach the 50% effect level in data set [1] (oral, writhing test, CFI mice (18 to 20 g), Table VI) (ED50). The “analgesic efficacy on addition of an orotic acid salt (in words)” value in data set [1] (metamizol, writhing test, mice, oral) is “reinforcement of the analgesic efficacy”.

`CCCCC1C(=O)N(c2ccccc2)N(c2ccccc2)C1=O` [Phenyl butazone]: in data set [1] (oral, writhing syndrome, CFI mice, female, 20 to 22 g, Table VIII), the 50% effect level (ED50) was put at a dose of 130 ± 45 mg/kg. Besides, the “analgesia in animal experiments (in words)” value in data set [1] (in the presence of orotic acid) is reported as “no reinforced analgesia; also recorded: no reinforced pharmacological action”. For the same compound, the “amount of drug in the ultrafiltrate (in words)” value in data set [6] is listed as “not found in increased quantity in the ultrafiltrate; also recorded: no more drug is found”.

In data set [1] (oral, writhing test, CFI mice (18 - 20 g), Table V), `O=C([O-])c1ccccc1O.[Na+]` [Sodium salicylate] yielded an ED50 of 580 mg/kg.

These data come from US4061741A, “Physiological substances for intensifying the pharmacological effect of drugs” (Firma Servomed Arzei GmbH & Co. Pharma KG, priority 1974, dated 1977).
